# Results taken from patent publication US4185089A, “Immunological adjuvant constituted by the p-amino-phenyl derivative of N-acetyl-muramyl-L-alanyl-D-isoglutamine” (Agence Nationale de Valorisation de la Recherche (ANVAR), priority 1976, dated 1980).
# Values joined by “and” are separate entries in the source; they are usually repeats but may differ in a detail not shown here. Equal entries are not always repeated.
# Assays:
# [1] = tested on: rabbits; experiment: Pyrogenicity on rabbits (French Pharmacopea protocol); assay type: in vivo; settings: for Rise in temperature °C.: individual animals (batch of three), listed as product according to the invention
# Method: The pyrogenic effect of the product according to the invention on rabbits was studied, following the protocol of the French Pharmacopea, 9e edition, II-235. Each test was carried out on a batch of three rabbits. The administration was first done by the subcutaneous route, then by the intravenous route. The results of these tests, that is to say the increase in temperature in the treated animals, were as follows: […]
# [2] = tested on: female Hartley guinea pigs; experiment: Adjuvant test in oily phase: delayed hypersensitivity cutaneous test to ovalbumin; assay type: in vivo, guinea pig
# Method: (§1) The tests were carried out on female Hartley guinea pigs of 350 g. The administration was done by intradermal injection in the plantar pad of each of the rear paws. The ovalbumin (constituting the antigen) in the dose of 0.5 mg was prepared in 0.1 ml of an emulsion of saline isotonic solution, in an oily phase constituted either by the Freund incomplete adjuvant (FIA), or by the Freund complete adjuvant (FCA) formed by the FIA to which is added 0.1 mg of whole cells of Mycobacterium smegmatis. The compound according to the invention was administered in the dose of 0.1 mg added in the emulsion containing the FIA.
# Eighteen days after this immunisation, possible reactions of delayed hypersensibility to the antigen were sought by injecting by the intradermal route 0.005 mg of ovalbumin into the side of the animals, and the reaction at the point of injection was observed 48 hours later. The diameter in mm of the thus provoked reaction was measured.
# [3] = tested on: mice; experiment: Toxicity by intravenous injection in mice; assay type: in vivo; settings: mice aged two months
# Excerpt: The toxicity of the product according to the invention was studied by intravenous injection in mice aged two months.
# [4] = tested on: female Hartley guinea pigs; experiment: Adjuvant test in oily phase: specific serum antibody level to ovalbumin; assay type: in vivo, guinea pig
# Method: In these tests, the growth of the specific antibody level of a given antigen when the latter is injected, with or without the adjuvant compound according to the invention, in the midst of a water and oil emulsion was followed.
# as §1
# Twenty one days after the injection, the animals were bled. On the serum collected, the specific antibody content of the ovalbumin was measured by precipitation of the antibody-antigen complex in the equivalence zone. The amount of protein nitrogen contained in this precipitate was evaluated according to the Folin method. These values express the amounts, in micrograms, of nitrogen precipitable by the antigen, per ml of serum.
smiles,measurement,setting,value
"CC(=O)NC1C(Oc2ccc(N)cc2)OC(CO)C(O)C1O[C@H](C)C(=O)N[C@@H](C)C(=O)N[C@H](CCC(=O)O)C(N)=O (stereo partly drawn) [p-amino-phenyl-Mur-NAc-L-Ala-D-iso-Gln, 2-(p-amino-phenyl-2-acetamido-2-deoxy-3-O-D-glucopyranosyl)-D-propionyl-L-alanyl-D-isoglutamine]",Pyrogenicity (in words),[1]; doses where adjuvant properties are manifested,apyrogenic
same,Rise in temperature °C.,"[1]; intravenous, 1.0 mg/kg",0 °C and 0.4 °C and 0.6 °C
same,Rise in temperature °C.,"[1]; sub-cutaneous, 0.100 mg/kg, 0.1 mg/kg",0 °C (2×) and 0.1 °C
same,Rise in temperature °C.,"[1]; sub-cutaneous, 0.500 mg/kg, 0.5 mg/kg",0 °C and 0.2 °C and 0.1 °C
same,Delayed-type hypersensitivity reaction to the antigen (in words),[2]; administered in oily emulsion,induces a hypersensitivity reaction of the delayed type
same,Cutaneous test diameter in mm,"[2]; guinea pigs, challenge 0.005 mg ovalbumin intradermal 18 days after immunisation, read 48 hours later, adjuvant 100 μg",19.5±4.5 mm
same,lethal dose (LD50),[3],very much higher than that of the dosage at which the product manifests its adjuvant properties
same,Effect on level of antibodies to the administered antigen (in words),[4]; administered in oily emulsion,distinctly facilitates the increase in the level of antibodies
same,Seric antibodies (nitrogen precipitable by the antigen per ml of serum),"[4]; guinea pigs, ovalbumin 0.5 mg intradermal in water-in-oil emulsion, adjuvant 100 μg, serum 21 days after injection, average values",3500 µg/mL
